Experimental data as given in patent US12612412B2, “Antiviral heterocyclic compounds” (Enanta Pharmaceuticals, Inc., priority 2021, dated 2026).

These molecules were tested on genotype A, "Long" strain RSV (assay: RSV-A assay (CPE protection in Hep-2 cells, ATPlite readout)). Conditions: human respiratory syncytial virus, RSV-A Long strain, MOI 0.1, CPE protection, read-out: Human RSV-A (“Long”) EC50.
Format: cell-based, Human respiratory syncytial virus (HRSV)
Method in brief: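 Hep-2 cells (8,000/well) infected with RSV Long strain at MOI 0.1 in the presence of 2-fold compound dilutions in duplicate. After 5 days, cell viability measured by ATPlite luminescence, normalized between virus-only and uninfected cell controls; EC50 reported.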

| EC50 | SMILES |
| --- | --- |
| > 200 nM | COc1cc(C(=O)NC[C@@](O)(c2cc3c(c(-c4ccc(OC(F)(F)F)cc4)n2)OC[C@]3(C)C(N)=O)C(F)(F)F)cc2cn(C3CC3)nc12 [Example 897] |
| < 200 nM | COc1cc(C(=O)NC[C@@](O)(c2cc3c(c(-c4ccc(F)cc4F)n2)OC[C@]3(C)C(N)=O)C(F)(F)F)cc2cn(C3CC3)nc12 [Example 900] |
| > 200 nM | COc1cc(C(=O)NC[C@](O)(c2cc3c(c(-c4ccc5oc(C)nc5c4)n2)OC[C@]3(C)C(N)=O)C(F)(F)F)cc2cn(C3CC3)nc12 [Example 902] |
| > 200 nM | COc1cc(C(=O)NC[C@](O)(c2cc3c(c(-c4cn(C)nc4C(F)(F)F)n2)OC[C@]3(C)C(N)=O)C(F)(F)F)cc2cn(C3CC3)nc12 [Example 904] |
| > 200 nM | COc1ccc(-c2nc([C@](O)(CNC(=O)c3cc(OC)c4nn(C5CC5)cc4c3)C(F)(F)F)cc3c2OC[C@]3(C)C(N)=O)cc1OC [Example 905] |
| < 200 nM | COc1ccc(-c2nc([C@@](O)(CNC(=O)c3cc(OC)c4nn(C5CC5)cc4c3)C(F)(F)F)cc3c2OC[C@]3(C)C(N)=O)cc1OC [Example 906] |
| > 200 nM | COc1cc(C(=O)NC[C@@](O)(c2cc3c(c(-c4ccc5c(c4)OCO5)n2)OC[C@]3(C)C(N)=O)C(F)(F)F)cc2cn(C3CC3)nc12 [Example 907] |
| > 200 nM | COc1cc(C(=O)NC[C@@](O)(c2cc3c(c(-c4ccccc4F)n2)OC[C@]3(C)C(N)=O)C(F)(F)F)cc2cn(C3CC3)nc12 [Example 910] |
| < 200 nM | COc1cc(C(=O)NC[C@](O)(c2cc3c(c(-c4ccc(F)cc4)n2)OC[C@]3(C(N)=O)C(F)F)C(F)(F)F)cc2cn(C3CC3)nc12 [Example 998] |
| > 200 nM | COc1cc(C(=O)NC[C@](O)(c2cc3c(c(-c4ccc(F)c(Cl)c4)n2)OC[C@@]3(CF)C(N)=O)C(F)(F)F)ccc1OC1CC1 [Example 1048] |
| < 200 nM | COc1cc(C(=O)NC[C@](O)(c2cc3c(c(-c4ccc(F)c(Cl)c4)n2)OC[C@]3(C)C(N)=O)C(F)(F)F)cc2cc(C)c(Cl)nc12 [Example 1071] |
| < 200 nM | COc1cc(C(=O)NC[C@](O)(c2cc3c(c(-c4cccc(F)c4Cl)n2)OC[C@]3(C)C(N)=O)C2CC2)cc2cc(C)c(Cl)nc12 [Example 1073] |
| < 200 nM | Cc1cc2cc(C(=O)NC[C@](O)(c3cc4c(c(-c5ccc(F)cc5)n3)OC[C@]4(C)C(N)=O)C(F)(F)F)cc(OC3CC3)c2nc1Cl [Example 1075] |
| < 200 nM | Cc1cc2cc(C(=O)NC[C@](O)(c3cc4c(c(-c5ccc(F)c(Cl)c5)n3)OC[C@]4(C)C(N)=O)C(F)(F)F)cc(OC3CC3)c2nc1Cl [Example 1076] |
| < 200 nM | Cc1cc2cc(C(=O)NC[C@](O)(c3cc4c(c(-c5ccc(F)c(Cl)c5F)n3)OC[C@]4(C)C(N)=O)C3CC3)cc(OC3CC3)c2nc1Cl [Example 1077] |
| < 200 nM | Cc1cc2cc(C(=O)NC[C@](O)(c3cc4c(c(-c5cccc(F)c5Cl)n3)OC[C@]4(C)C(N)=O)C3CC3)cc(OC3CC3)c2nc1Cl [Example 1078] |
| < 200 nM | Cc1cc2cc(C(=O)NC[C@](O)(c3cc4c(c(-c5ccc6c(c5)OC(F)(F)O6)n3)OC[C@]4(C)C(N)=O)C3CC3)cc(OC3CC3)c2nc1Cl [Example 1079] |
| < 200 nM | C[C@]1(C(N)=O)COc2c1cc([C@@](O)(CNC(=O)c1cc(OC3CC3)c3nn(C(F)F)cc3c1)C1CC1)nc2-c1cc(Br)c(F)cc1F [Example 1086] |
| < 200 nM | COc1cc(C(=O)NC[C@](O)(c2cc3c(c(-c4cccc(F)c4Cl)n2)OC[C@]3(C)C(N)=O)C(F)(F)F)cc2cn(C3CC3)nc12 [Example 1107] |
| < 200 nM | COc1cc(C(=O)NC[C@](O)(c2cc3c(c(-c4ccc(F)cc4)n2)OC[C@]3(C)C(N)=O)C2CC2)cc2cc(C)nnc12 [Example 1108] |

| EC50 | SMILES |
| --- | --- |
| < 200 nM | COc1cc(C(=O)NC[C@](O)(c2cc3c(c(-c4ccc(F)cc4)n2)OC[C@]3(C)C(N)=O)C2CC2)cc2cc(C3CC3)nnc12 [Example 1109] |
| < 200 nM | COc1cc(C(=O)NC[C@](O)(c2cc3c(c(-c4ccc5c(c4)OC(F)(F)O5)n2)OC[C@]3(C)C(N)=O)C(F)(F)F)cc2cc(C)nnc12 [Example 1110] |
| < 200 nM | COc1cc(C(=O)NC[C@](O)(c2cc3c(c(-c4ccc5c(c4)OC(F)(F)O5)n2)OC[C@]3(C)C(N)=O)C(F)(F)F)cc2cc(C3CC3)nnc12 [Example 1111] |
| < 200 nM | COc1cc(C(=O)NC[C@](O)(c2cc3c(c(-c4cc(Cl)c(F)cc4F)n2)OC[C@]3(C)C(N)=O)C2(F)CC2)cc2cn(C(F)F)nc12 [Example 1112] |
| < 200 nM | COc1cc(C(=O)NC[C@](O)(c2cc3c(c(-c4cc(Cl)c(F)cc4F)n2)OC[C@]3(C)C(N)=O)C2(F)CC2)cc2cc(Br)cnc12 [Example 1113] |
| < 200 nM | COc1cc(C(=O)NC[C@](O)(c2cc3c(c(-c4ccc(F)c(Cl)c4F)n2)OC[C@]3(C)C(N)=O)C2(F)CC2)cc2cc(Br)cnc12 [Example 1114] |
| < 200 nM | COc1cc(C(=O)NC[C@](O)(c2cc3c(c(-c4ccc(F)cc4)n2)OC[C@]3(C)C(N)=O)C(F)(F)F)cc2cc(Br)c(C)nc12 [Example 1115] |
| < 200 nM | COc1cc(C(=O)NC[C@](O)(c2cc3c(c(-c4ccc(F)cc4)n2)OC[C@]3(C)C(N)=O)C2CC2)cc2cc(Br)c(C)nc12 [Example 1117] |
| < 200 nM | COc1cc(C(=O)NC[C@](O)(c2cc3c(c(-c4ccc(F)cc4)n2)OC[C@]3(C)C(N)=O)C2(F)CC2)cc2cc(Br)c(C)nc12 [Example 1118] |
| < 200 nM | COc1cc(C(=O)NC[C@](O)(c2cc3c(c(-c4ccc(F)c(Cl)c4F)n2)OC[C@]3(C)C(N)=O)C2CC2)cc2cc(Br)c(C)nc12 [Example 1129] |
| < 200 nM | COc1cc(C(=O)NC[C@](O)(c2cc3c(c(-c4ccc5c(c4)OC(F)(F)O5)n2)OC[C@]3(C)C(N)=O)C2CC2)cc2cc(Br)c(C)nc12 [Example 1130] |
| < 200 nM | COc1cc(C(=O)NC[C@](O)(c2cc3c(c(-c4cc(Cl)c(F)cc4F)n2)OC[C@]3(C)C(N)=O)C2CC2)cc2sc(C)nc12 [Example 1131] |
| < 200 nM | COc1cc(C(=O)NC[C@](O)(c2cc3c(c(-c4cc(Cl)c(F)cc4F)n2)OC[C@]3(C)C(N)=O)C2CC2)cc2sc(C3CC3)nc12 [Example 1132] |
| < 200 nM | CCNC(=O)[C@@]1(C)COc2c1cc([C@@](O)(CNC(=O)c1cc(OC)c3nn(C4CC4)cc3c1)C(F)(F)F)nc2-c1ccc(F)cc1 [Example 1171] |
| < 200 nM | COc1cc(C(=O)NC[C@](O)(c2cc3c(c(-c4ccc(F)cc4)n2)OC[C@]3(C)C(=O)NC2CC2)C(F)(F)F)cc2cn(C3CC3)nc12 [Example 1172] |
| < 200 nM | COc1cc(C(=O)NC[C@](O)(c2cc3c(c(-c4ccc(F)cc4)n2)OC[C@]3(C)C(=O)NCC(F)(F)F)C(F)(F)F)cc2cn(C3CC3)nc12 [Example 1173] |
| < 200 nM | COc1cc(C(=O)NC[C@](O)(c2cc3c(c(-c4ccc(F)cc4)n2)OC[C@]3(C)C(=O)NC2COC2)C(F)(F)F)cc2cn(C3CC3)nc12 [Example 1174] |
| < 200 nM | COc1cc(C(=O)NC[C@](O)(c2cc3c(c(-c4ccc(F)cc4)n2)OC[C@]3(C)C(=O)NCCC(C)(C)O)C(F)(F)F)cc2cn(C3CC3)nc12 [Example 1175] |
| < 200 nM | COc1cc(C(=O)NC[C@](O)(c2cc3c(c(-c4ccc(F)cc4)n2)OC[C@]3(C)C(=O)NC2(C)CC2)C(F)(F)F)cc2cn(C3CC3)nc12 [Example 1176] |
